Results on 7 compounds are retold here after patent US9867811B2, “Method of treating atherosclerosis in high triglyceride subjects” (NOVARTIS AG, priority 2011, dated 2018).

Read-outs that look alike come from different tables or passages of the source.

The target in assay [1] is T1, CETP (Homo sapiens, UniProt P11597).
T1 construct: Human serum samples were obtained from the Novartis Institutes for BioMedical Research donor program; tissue Novartis donor program; Bioreclamation (Westbury, N.Y.); Uniglobe (Reseda, Calif.); host or cells: pooled human donor serum
T1 sequence (P11597 18-493): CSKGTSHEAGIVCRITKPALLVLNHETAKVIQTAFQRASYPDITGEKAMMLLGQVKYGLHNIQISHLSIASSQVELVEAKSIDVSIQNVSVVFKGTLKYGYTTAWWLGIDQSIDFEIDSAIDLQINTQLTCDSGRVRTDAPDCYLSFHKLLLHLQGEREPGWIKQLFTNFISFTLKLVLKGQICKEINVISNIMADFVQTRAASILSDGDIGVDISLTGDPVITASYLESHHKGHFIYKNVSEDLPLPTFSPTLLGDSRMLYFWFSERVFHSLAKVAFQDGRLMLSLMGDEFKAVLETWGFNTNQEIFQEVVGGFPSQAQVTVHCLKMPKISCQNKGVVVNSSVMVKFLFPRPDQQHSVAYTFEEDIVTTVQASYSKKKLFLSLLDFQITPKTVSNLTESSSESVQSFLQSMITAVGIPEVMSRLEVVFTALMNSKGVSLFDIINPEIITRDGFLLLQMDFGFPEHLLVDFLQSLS
The assay is described as follows: In vitro CETP activity assay in human plasma (serum pools of differing triglyceride level). The assay is classed as biochemical. The conditions noted are these: human serum pool. The procedure:
Pro-apoA-1 containing microemulsion as a donor particle was prepared following previous report (J. Biol. Chem., 280:14918-22). Glyceryl trioleate (500 ug, Sigma-Aldrich, Cat. No. T7140), 3-sn-phosphatidylcholine (4680 ug, Sigma, Cat. No. P2772), and cholesteryl BODIPY FL 012 (2 mg, Invitrogen, CA, Cat. No. C-3927MP) were dissolved in 1.5 mL of chloroform. The solution was evaporated, and residual solvent was removed under vacuum for more than 1 hr at room temperature. The dried lipid mixture was dissolved in 7 ml of the assay buffer (50 mM Tris-HCl (pH 7.4) containing 150 mM NaCl and 2 mM EDTA) and sonicated in water bath for 1 hr. The solution was split into two tubes of 3.5 ml each. Each tube was sonicated at 50° C. with a microtip (MICROSON™ ULTRASONIC CELL DISRUPTOR, Misonix, Farmingdale, N.Y.) at output power 006 for 10 min (every other 25 seconds). The solution was cooled to 40° C. and 400 ug of pro-apoA-1 was added to each tube (total volume of 4 mL). Then, the solution was sonicated at output power 004 for 20 min (every other 30 seconds). Final Concentration: Glyceryl Tiroleate: 62.5 ug/ml, PC: 585 ug/ml, Bodipy CE: 250 ug/ml, Pro-apoA-1: 100 ug/ml. Centrifuge solution at 5200×g for 5 minutes and store the supernatant at 4′C.
Human serum samples were obtained from the Novartis Institutes for BioMedical Research donor program (normal triglyceride samples) or purchased from Bioreclamation (Westbury, N.Y.) or Uniglobe (Reseda, Calif.). General requirements for human serum donors included: male gender, 20-55 years of age, not currently on a lipid altering medication, non-fasting at time of blood collection, and a total cholesterol level between 200-300 mg/dL. Donor samples were selected primarily on the basis of serum triglyceride level, using the following classifications: normal triglycerides (<150 mg/dL); high triglycerides (300-500 mg/dL); and very high triglycerides (750-1200 mg/dL). A total of 4 individual serum samples from each classification were used in these experiments. For each of the 3 triglyceride classifications, two serum sample pools were prepared. The mean plasma triglyceride concentrations (mg/dL) for the pools were: Normal: 101.35; High: 347.5; Very high 1, 868.45; Very high 2, 1269.35.
Donor solution is prepared by a dilution of donor microemulsion with assay buffer (1.7 ul donor+8.3 ul Buffer). Human serum (25 μL), assay buffer (14 μL) and 50× test compound dissolved in 100% dimethylsulfoxide (1 μL) are added to each well of 384 well black, clear-bottom plate (NUNC. Thermo Fisher #242764). The reaction is started by the addition of donor solution (10 μL) into each well. Fluorescence intensities are measured every 10 min at 37° C. with excitation wave length of 485 nm and emission wavelength of 515 nm over an 80 minute period, using a SpectraMax M5 from Molecular Devices (Sunnyvale, Calif.). The CETP activity (RFU/min) is defined as the change of fluorescence intensity from 40 to 70 min. Percent CETP inhibition is calculated as follows: ((100% Act−Wellcmpnd)/100% Act))*100. IC50 values were calculated with GraphPad Prism 5 software.

In assay [2] the test system is CETP. The assay is described as follows: Ex vivo CETP activity in plasma of hamsters (saline or Triton WR-1339 treated). The settings on record: hamster. The procedure:
Nine- to ten-week-old, male golden Syrian hamsters were purchased from Japan SLC Inc. (Shizuoka, Japan). Animals underwent a more than 1-week acclimation period under the following conditions: 8:00/20:00 light/dark cycle, room temperature 23±2° C. […] During this time, animals received filtered (0.5 μm) water and a standard chow diet ad libitum.
Whole blood samples were collected using a heparin-washed syringe (Heparin sodium injection “Ajinomoto”; Ajinomoto, Tokyo, Japan) from the abdominal vein by venipuncture under isoflurane (Abbott Japan Co. Ltd.) inhalant anesthesia. After centrifugation at 15,000 rpm for 10 min at 4° C., heparinized plasma was prepared and stored at −80° C. until use.
CETP activity (RFU/min) was defined as the change in fluorescence intensity from 30 to 90 min.
The effect of an acute increase of plasma triglycerides in vivo (acute increase in triglyceride-rich particles) on the ability of Torcetrapib to alter plasma CETP activity, triglyceride and total cholesterol levels was investigated. Torcetrapib at doses of 3, 10 or 30 mg/kg or vehicle was administered once by gavage to hamsters fed a standard chow diet.
Compound or vehicle was administered once by gavage to hamsters fed a standard chow diet.

Assay [3] deals with CETP. The assay is described as follows: Ex vivo plasma CETP activity assay with exogenously added compound (maximum inhibition). The assay is classed as biochemical. The settings on record: 10 μM, hamster plasma (80% plasma). The procedure: Plasma CETP activity ex vivo was determined as followed: 50 μL of hamster plasma (final 80% plasma) was mixed with 10 μL of donor solution diluted with assay buffer composed of 50 mM Tris-HCl (pH7.4) containing 150 mM NaCl and 2 mM EDTA in a 96-well half area black flat bottom plate (Cat. No. 3686, Corning, Corning, N.Y.). Fluorescence intensity was measured every 15 min at an excitation wave length of 485 nm and an emission wavelength of 535 nm for 120 min at 37° C. using ARVO SX+L (PerkinElmer, Wellesley, Mass.). CETP activity (RFU/min) was defined as the change in fluorescence intensity from 30 to 90 min.

The mark [4] stands for this setting: TG = 101.35 mg/dL (normal), read-out: CETP IC50 (nM) TG = 101.35 mg/dL.
Setting [5] is: TG = 374.5 mg/dL (high), read-out: CETP IC50 (nM) TG = 374.5 mg/dL.
Where [6] appears, read: TG = 868.45 mg/dL (very high 1), read-out: CETP IC50 (nM) TG = 868.45 mg/dL.
Setting [7] is: TG = 1269.35 mg/dL (very high 2), read-out: CETP IC50 (nM) TG = 1269.35 mg/dL.

`CC[C@@H]1C[C@H](N(Cc2cc(C(F)(F)F)cc(C(F)(F)F)c2)c2ncc(-c3cnn(C)c3)cn2)C[C@H](CC)N1C(=O)O[C@H]1C[C@H](C(=O)O)C1` [Example 17]: the IC50 worked out at 114 nM in assay [1] (setting [4]), 62.7 nM in assay [1] (setting [5]), 40.2 nM in assay [1] (setting [6]) and 29.6 nM in assay [1] (setting [7]).

On to `CC[C@@H]1C[C@H](N(Cc2cc(C(F)(F)F)cc(C(F)(F)F)c2)c2ncc(-c3cnn(C)c3)cn2)C[C@H](CC)N1C(=O)O[C@H]1CC[C@H](C(=O)O)CC1` [Example 19], for which the IC50 in assay [1] (setting [4]) stood at 71.9 nM; in assay [1] (setting [5]) it was 116 nM; in assay [1] (setting [7]), 540 nM.

As for `Cn1nnc(N(Cc2cc(C(F)(F)F)cc(C(F)(F)F)c2)Cc2cc3cc(F)c(F)cc3nc2N2CCC[C@@H]2[C@H]2CC[C@H](C(=O)O)CC2)n1` [Example 49], the “Inhibition of CETP activity, lower dose group, Triton WR-1339 group” value in assay [2] (oral gavage: Torcetrapib 5 mg/kg, Anacetrapib 1.5 mg/kg, Example 49 1.5 mg/kg, Example 8 0.75 mg/kg, Triton WR-1339 100 mg/kg i.v., not significant vs vehicle) came to 26%. Besides, the “Inhibition of CETP activity, lower dose group, saline group” value in assay [2] (oral gavage: Torcetrapib 5 mg/kg, Anacetrapib 1.5 mg/kg, Example 49 1.5 mg/kg, Example 8 0.75 mg/kg, saline i.v.) is given as 63%. Further, the “Inhibition of CETP activity, higher dose group, Triton WR-1339 group” value in assay [2] (oral gavage: Torcetrapib 10 mg/kg, Anacetrapib 3 mg/kg, Example 49 3 mg/kg, Example 8 1.5 mg/kg, Triton WR-1339 100 mg/kg i.v.) amounted to 38%. The “Inhibition of CETP activity, higher dose group, saline group” value in assay [2] (oral gavage: Torcetrapib 10 mg/kg, Anacetrapib 3 mg/kg, Example 49 3 mg/kg, Example 8 1.5 mg/kg, saline i.v.) is listed as 77%. Besides, the IC50 was determined as 22.1 nM in assay [1] (setting [4]), 42.7 nM in assay [1] (setting [5]), 37.1 nM in assay [1] (setting [6]) and 46.4 nM in assay [1] (setting [7]). Moreover, in assay [3] (Triton WR-1339 group), the “Maximum inhibition of CETP activity, compound exogenously added, Triton WR-1339 group” value is recorded as approximately 100%. Moreover, the “Maximum inhibition of CETP activity, compound exogenously added, saline group” value in assay [3] (saline group) was approximately 100%.

As to `Cc1cc(C)c2c(c1)[C@@H](N(Cc1cc(C(F)(F)F)cc(C(F)(F)F)c1)c1nnn(C)n1)CCCN2C[C@H]1CC[C@H](C(=O)O)CC1` [Example 53], the IC50 in assay [1] (setting [4]) was 48.7 nM; in assay [1] (setting [5]), 49.8 nM; in assay [1] (setting [6]), 54.4 nM; in assay [1] (setting [7]) it was 92.3 nM.

Regarding `CCN(C[C@H]1CC[C@H](CC(=O)O)CC1)c1ccc(C(F)(F)F)cc1CN(c1ncc(OCCS(C)(=O)=O)cn1)[C@@H](C)c1cc(C(F)(F)F)cc(C(F)(F)F)c1` [Example 57A], the IC50 in assay [1] (setting [4]) came out at 301 nM; in assay [1] (setting [5]), 155 nM; in assay [1] (setting [6]), 91.7 nM; in assay [1] (setting [7]) it was 29.4 nM.

On to `CCN(C[C@H]1CC[C@H](CC(=O)O)CC1)c1ccc(C(F)(F)F)cc1CN(c1ncc(OCCS(C)(=O)=O)cn1)[C@H](C)c1cc(C(F)(F)F)cc(C(F)(F)F)c1` [Example 57B], for which the IC50 is 669 nM in assay [1] (setting [4]), 1300 nM in assay [1] (setting [5]), 2300 nM in assay [1] (setting [6]) and 2700 nM in assay [1] (setting [7]).

`CCN(C[C@H]1CC[C@H](CC(=O)O)CC1)c1cc(C)c(C(F)(F)F)cc1CN(Cc1cc(C(F)(F)F)cc(C(F)(F)F)c1)c1nnn(C)n1` [Example 58]: the IC50 in assay [1] (setting [4]) came to 82.2 nM; in assay [1] (setting [5]), 151 nM; in assay [1] (setting [6]), 280 nM; in assay [1] (setting [7]) it was 372 nM.
